Test results taken from patent US7265120B2, “Pyrazine derivatives and pharmaceutical use thereof” (Astellas Pharma Inc., priority 2004, dated 2007).

Row | melting point [°C] | Compound
1 | 191 to 194 | Cn1nc(-c2nc(NC3CCN(Cc4ccccc4)CC3)c(N)nc2-c2ccccc2)ccc1=O [Example 129, 6-{5-amino-6-[(1-benzyl-4-piperidinyl)amino]-3-phenyl-2-pyrazinyl}-2-methyl-3(2H)-pyridazinone]
2 | 155 to 157 | Cn1nc(-c2nc(N3CCN(c4ccccc4)CC3)c(N)nc2-c2ccccc2)ccc1=O [Example 130, 6-[5-amino-3-phenyl-6-(4-phenyl-1-piperazinyl)-2-pyrazinyl]-2-methyl-3(2H)-pyridazinone]
3 | 177 to 179 | Cn1nc(-c2nc(N3CCN4CCCC4C3)c(N)nc2-c2ccccc2)ccc1=O (stereo not drawn) [Example 131, 6-[5-amino-6-(hexahydropyrrolo[1,2-a]pyrazin-2(1H)-yl)-3-phenyl-2-pyrazinyl]-2-methyl-3(2H)-pyridazinone]
4 | 188 to 189 | CC(C)n1nc(-c2nc(NCCN(C)C)c(N)nc2-c2ccccc2)ccc1=O [Example 132, 6-(5-amino-6-{[2-(dimethylamino)ethyl]amino}-3-phenyl-2-pyrazinyl)-2-isopropyl-3(2H)-pyridazinone]
5 | 147 to 149 | CC(=O)NCCNc1nc(-c2ccc(=O)n(C(C)C)n2)c(-c2ccccc2)nc1N [Example 133, N-(2-{[3-amino-6-(1-isopropyl-6-oxo-1,6-dihydro-3-pyridazinyl)-5-phenyl-2-pyrazinyl]amino}ethyl)acetamide]
6 | 204.5 to 207 | CC(C)n1nc(-c2nc(NCCc3ccccc3)c(N)nc2-c2ccccc2)ccc1=O [Example 135, 6-{5-amino-3-phenyl-6-[(2-phenylethyl)amino]-2-pyrazinyl}-2-isopropyl-3(2H)-pyridazinone]
7 | 185.5 to 187 | CC(C)n1nc(-c2nc(NCCCc3ccccc3)c(N)nc2-c2ccccc2)ccc1=O [Example 136, 6-{5-amino-3-phenyl-6-[(3-phenylpropyl)amino]-2-pyrazinyl}-2-isopropyl-3(2H)-pyridazinone]
8 | 227 to 228.5 | CC(C)n1nc(-c2nc(NC3CCCCC3)c(N)nc2-c2ccccc2)ccc1=O [Example 137, 6-[5-amino-6-(cyclohexylamino)-3-phenyl-2-pyrazinyl]-2-isopropyl-3(2H)-pyridazinone]
9 | 86 to 91 | CC(C)n1nc(-c2nc(NC3CCN(Cc4ccccc4)C3)c(N)nc2-c2ccccc2)ccc1=O (stereo not drawn) [Example 138, 6-{5-amino-6-[(1-benzyl-3-pyrrolidinyl)amino]-3-phenyl-2-pyrazinyl)-2-isopropyl-3(2H)-pyridazinone]
10 | > 250 | CC(C)n1nc(-c2nc(Nc3ccccc3)c(N)nc2-c2ccccc2)ccc1=O [Example 139, 6-(5-amino-6-anilino-3-phenyl-2-pyrazinyl)-2-isopropyl-3(2H)-pyridazinone]
11 | 212 to 214.5 | CC(C)n1nc(-c2nc(N3CCOCC3)c(N)nc2-c2ccccc2)ccc1=O [Example 140, 6-[5-amino-6-(4-morpholinyl)-3-phenyl-2-pyrazinyl]-2-isopropyl-3(2H)-pyridazinone]
12 | 192 to 194.5 | CC(C)n1nc(-c2nc(N3CCCC3)c(N)nc2-c2ccccc2)ccc1=O [Example 141, 6-[5-amino-3-phenyl-6-(1-pyrrolidinyl)-2-pyrazinyl]-2-isopropyl-3(2H)-pyridazinone]
13 | 163 to 165 | CC(C)n1nc(-c2nc(N3CCN(c4ccccn4)CC3)c(N)nc2-c2ccccc2)ccc1=O [Example 142, 6-{5-amino-3-phenyl-6-[4-(2-pyridyl)-1-piperazinyl]-2-pyrazinyl}-2-isopropyl-3(2H)-pyridazinone]
14 | 210 to 212 | Cn1nc(-c2nc(N(CCO)Cc3ccccc3)c(N)nc2-c2ccccc2)ccc1=O [Example 143, 6-{5-amino-6-[benzyl(2-hydroxyethyl)amino]-3-phenyl-2-pyrazinyl}-2-methyl-3(2H)-pyridazinone]
15 | > 250 | Cn1nc(-c2nc(NCc3ccccc3)c(N)nc2-c2ccccc2)ccc1=O [Example 144, 6-[5-amino-6-(benzylamino)-3-phenyl-2-pyrazinyl]-2-methyl-3(2H)-pyridazinone]
16 | 150 to 152 | CN(C)c1nc(-c2ccc(=O)n(C)n2)c(-c2ccccc2)nc1N [Example 144, 6-[5-amino-6-(dimethylamino)-3-phenyl-2-pyrazinyl]-2-methyl-3(2H)-pyridazinone]
17 | > 250 | COc1ccc(CNc2nc(-c3ccc(=O)n(C)n3)c(-c3ccccc3)nc2N)cc1 [Example 145, 6-[5-amino-6-[(4-methoxybenzyl)amino]-3-phenyl-2-pyrazinyl}-2-methyl-3(2H)-pyridazinone]
18 | > 250 | Cn1nc(-c2nc(NCc3ccccn3)c(N)nc2-c2ccccc2)ccc1=O [Example 146, 6-{5-amino-3-phenyl-6-[(2-pyridylmethyl)amino]-2-pyrazinyl}-2-methyl-3(2H)-pyridazinone]

Row | melting point [°C] | Compound
19 | 132 to 136 | CC(C)n1nc(-c2nc(-n3cccc3)c(N)nc2-c2ccccc2)ccc1=O [Example 147, 6-[5-amino-3-phenyl-6-(1H-pyrrol-1-yl)-2-pyrazinyl]-2-isopropyl-3(2H)-pyridazinone]
20 | 202 to 205 | Cn1nc(-c2nc(-n3cccc3)c(N)nc2-c2ccccc2)ccc1=O [Example 148, 6-[5-amino-3-phenyl-6-(1H-pyrrol-1-yl)-2-pyrazinyl]-2-methyl-3(2H)-pyridazinone]
21 | 210 to 212 | CC(C)n1nc(-c2nc(-n3cccn3)c(N)nc2-c2ccccc2)ccc1=O [Example 149, 6-[5-amino-3-phenyl-6-(1H-pyrazol-1-yl)-2-pyrazinyl]-2-isopropyl-3(2H)-pyridazinone]
22 | > 250 | CC(C)n1nc(-c2nc(-n3ccnc3)c(N)nc2-c2ccccc2)ccc1=O [Example 150, 6-[5-amino-6-(1H-imidazol-1-yl)-3-phenyl-2-pyrazinyl]-2-isopropyl-3(2H)-pyridazinone]
23 | 240 to 241.5 | CC(C)n1nc(-c2nc(-n3cncn3)c(N)nc2-c2ccccc2)ccc1=O [Example 151, 6-[5-amino-3-phenyl-6-(1H-1,2,4-triazol-1-yl)-2-pyrazinyl]-2-isopropyl-3(2H)-pyridazinone]
24 | > 250 | CC(C)n1nc(-c2nc(-n3cnc4ccccc43)c(N)nc2-c2ccccc2)ccc1=O [Example 152, 6-[5-amino-6-(1H-benzimidazol-1-yl)-3-phenyl-2-pyrazinyl]-2-isopropyl-3(2H)-pyridazinone]
25 | > 250 | Cn1nc(-c2nc(-n3ccnc3)c(N)nc2-c2ccccc2)ccc1=O [Example 154, 6-[5-amino-6-(1H-imidazol-1-yl)-3-phenyl-2-pyrazinyl]-2-methyl-3(2H)-pyridazinone]
26 | > 250 | Cn1nc(-c2nc(-n3cncn3)c(N)nc2-c2ccccc2)ccc1=O [Example 155, 6-[5-amino-3-phenyl-6-(1H-1,2,4-triazol-1-yl)-2-pyrazinyl]-2-methyl-3(2H)-pyridazinone]
27 | > 250 | Cn1nc(-c2nc(-n3cnc4ccccc43)c(N)nc2-c2ccccc2)ccc1=O [Example 156, 6-[5-amino-6-(1H-benzimidazol-1-yl)-3-phenyl-2-pyrazinyl]-2-methyl-3(2H)-pyridazinone]
28 | 211 to 214 | COc1nc(-c2ccc(=O)n(C(C)C)n2)c(-c2ccccc2)nc1N [Example 157, 6-(5-amino-6-methoxy-3-phenyl-2-pyrazinyl)-2-isopropyl-3(2H)-pyridazinone]
29 | 173 to 175 | CC(C)n1nc(-c2nc(Oc3ccc(F)cc3)c(N)nc2-c2ccccc2)ccc1=O [Example 158, 6-[5-amino-6-(4-fluorophenoxy)-3-phenyl-2-pyrazinyl]-2-isopropyl-3(2H)-pyridazinone]
30 | 148 to 150 | CC(C)n1nc(-c2nc(Sc3ccc(F)cc3)c(N)nc2-c2ccccc2)ccc1=O [Example 159, 6-{5-amino-6-[(4-fluorophenyl)thio]-3-phenyl-2-pyrazinyl}-2-isopropyl-3(2H)-pyridazinone]
31 | 198 to 200 | CC(C)Oc1nc(-c2ccc(=O)n(C(C)C)n2)c(-c2ccccc2)nc1N [Example 160, 6-(5-amino-6-isopropoxy-3-phenyl-2-pyrazinyl)-2-isopropyl-3(2H)-pyridazinone]
32 | 161 to 163 | CC(C)n1nc(-c2nc(OC3CCCCC3)c(N)nc2-c2ccccc2)ccc1=O [Example 161, 6-[5-amino-6-(cyclohexyloxy)-3-phenyl-2-pyrazinyl]-2-isopropyl-3(2H)-pyridazinone]
33 | 118 to 120 | CC(C)n1nc(-c2nc(OCc3ccccc3)c(N)nc2-c2ccccc2)ccc1=O [Example 162, 6-[5-amino-6-(benzyloxy)-3-phenyl-2-pyrazinyl]-2-isopropyl-3(2H)-pyridazinone]
34 | 172 to 174 | CC(C)n1nc(-c2nc(OCc3ccco3)c(N)nc2-c2ccccc2)ccc1=O [Example 164, 6-[5-amino-6-(2-furylmethoxy)-3-phenyl-2-pyrazinyl]-2-isopropyl-3(2H)-pyridazinone]
35 | 128 to 130 | COCCOc1nc(-c2ccc(=O)n(C(C)C)n2)c(-c2ccccc2)nc1N [Example 166, 6-[5-amino-6-(2-methoxyethoxy)-3-phenyl-2-pyrazinyl]-2-isopropyl-3(2H)-pyridazinone]
36 | 120 to 122 | CC(C)n1nc(-c2nc(OCCOCc3ccccc3)c(N)nc2-c2ccccc2)ccc1=O [Example 168, 6-{5-amino-6-[2-(benzyloxy)ethoxy]-3-phenyl-2-pyrazinyl}-2-isopropyl-3(2H)-pyridazinone]

Row | Compound | melting point [°C]
37 | CCCCOc1nc(-c2ccc(=O)n(C(C)C)n2)c(-c2ccccc2)nc1N [Example 165, 6-(5-amino-6-butoxy-3-phenyl-2-pyrazinyl)-2-isopropyl-3(2H)-pyridazinone] | 130 to 131.5
38 | CC(C)n1nc(-c2nc(OCCOC(C)(C)C)c(N)nc2-c2ccccc2)ccc1=O [Example 167, 6-[5-amino-6-(2-tert-butoxyethoxy)-3-phenyl-2-pyrazinyl]-2-isopropyl-3(2H)-pyridazinone] | 163 to 165
39 | CC(C)n1nc(-c2nc(OCCCCOCc3ccccc3)c(N)nc2-c2ccccc2)ccc1=O [Example 169, 6-{5-amino-6-[4-(benzyloxy)butoxy]-3-phenyl-2-pyrazinyl}-2-isopropyl-3(2H)-pyridazinone] | 96.5 to 97.5
